Test results from paper PMC11400632, “Substrate selectivity and inhibition of the human lysyl hydroxylase JMJD7” (Protein Science : A Publication of the Protein Society, 2024).

Columns and labels:
Type in all cases: biochemical
human JMJD7 [1] = molecular target: T1, human JMJD7 (Homo sapiens, UniProt P0C870); assay: LC-MS assay of JMJD7-catalyzed hydroxylation/oxidation of DRG1 peptides; conditions: standard conditions: 2 μM JMJD7, 10 μM peptide, 10 μM 2OG, 2 h
T1 construct: human JMJD7 (residues 1–316) with an N‐terminal His6‐tag; His6 (N); made in house; host or cells: Escherichia coli Rosetta (DE3)
Procedure: Initial assays were carried out by incubation of purified recombinant (Markolovic et al., [2018]) human JMJD7 (2 μM) in the presence of a DRG1 derived peptide (10 μM), 2OG (10 μM), ferrous ammonium sulfate (FAS, 10 μM), and L‐ascorbate (LAA, 100 μM) in Tris buffer at pH 7.5 for 2 h at room temperature. Potential conversion to a hydroxylated product (+16 Da mass shift) was monitored by liquid‐chromatography‐mass‐spectrometry (LC–MS). […] The assay results also implied that DRG1‐Orn was hydroxylated, but to a lower extent (~21%) than DRG1‐Lys. […] The alcohol‐containing peptide hydroxynorleucine (DRG1‐HNle), was hydroxylated at relatively low levels (~24%), implying that H‐bonding interactions and positive charge of the N^ɛ‐amino group of lysine are important for efficient binding and catalysis, but that a neutral alcohol can still be accommodated at the active site (Figure 3f) (Markolovic et al., [2018]).
All reagents were procured from Sigma Aldrich. 2‐Oxoglutarate (2OG, 10 mM) and L‐ascorbic acid (LAA, 50 mM) solutions were prepared freshly by dissolving the solids in deionized water. Ferrous ammonium sulfate (FAS) solution was prepared freshly by dissolving FAS at 400 mM in 20 mM HCl with subsequent dilution to 1 mM using deionized water. JMJD7 assays using DRG1 (16–40) based peptides were performed with the following conditions: (i) 2 or 5 μM JMJD7, 10 μM DRG1 peptide, 100 μM LAA, 10 μM FAS, 10 μM 2OG in mM 50 Tris‐buffer (pH 7.5), (ii) 2 μM JMJD7, 10 μM DRG1 peptide, 100 μM LAA, 10 μM FAS, 20 μM 2OG in mM 50 Tris‐buffer (pH 7.5). Reactions were initiated by addition of enzyme to the cosubstrate/substrate solution in a final reaction volume of 50 μL with 2 h incubation at room temperature. A positive control reaction containing enzyme and a validated peptide substrate was included in all screening studies. After 2 h, reactions were stopped by addition of 5 μL of 10% (v/v) LC–MS grade formic acid (Fisher Scientific) and transferred to a 96 well plate (Agilent). Intact mass peptide analysis was performed by LC–MS using an Agilent 1290 infinity II LC system equipped with an Agilent 1290 multisampler and an Agilent 1290 high speed pump and connected to an Agilent 6550 accurate mass iFunnel quadrupole time of flight (Q‐TOF) mass spectrometer. The reaction mixture (4 μL) was injected and loaded onto a ZORBAX RRHD Eclipse Plus C18 column (Agilent). Solvent A consisted of LC–MS grade water containing 0.1% (v/v) formic acid and solvent B consisted of MeCN containing 0.1% (v/v) formic acid. Peptides were separated using a step wise gradient (0 min – 95% solvent A, 1.0 min – 80% solvent A, 3.0 min – 45% solvent A, 4.0 min – 45% solvent A, 5.0 min – 0% solvent A, 6.0 min – 0% solvent A, 7.0 min – 95% solvent A). This was followed by a 3 min elution with 95% solvent A to re‐equilibrate the column. Flow rates were 0.2 mL/min. The mass spectrometer was operated in the positive ion mode with a drying gas temperature (280°C), drying gas flow rate (13 L min^−1), nebulizer pressure (40 psig), sheath gas temperature (350°C), sheath gas flow rate (12 L min^−1), capillary voltage (4000 V), nozzle voltage (1000 V). Data were analyzed using Agilent MassHunter Qualitative Analysis (Version B.07.00) software.

human JMJD7 [2] = molecular target: T1, human JMJD7; assay: NMR assay of JMJD7-catalyzed reaction of DRG1 peptides; conditions: 200 μM peptide, 10 μM JMJD7, 30 μM FAS, 200 μM 2OG, 500 μM LAA, phosphate buffer 10% D2O, pH 7.4, 1H NMR time-course
Procedure: To validate the fragmentation of the product on hydroxylation of the DRG1‐CysNH2 peptide, we performed NMR studies focusing on the appearance of small molecules, comparing the results with the DRG1‐Lys substrate. Reactions were carried out by incubating the DRG1 peptide (200 μM) in the presence or absence of enzyme (10 μM JMJD7, 30 μM FAS, 200 μM 2OG, 500 μM LAA, phosphate buffer in 10% D2O v/v, pH 7.4). […] The observation of a DRG1‐CysNH2 derived product with two methylene groups (triplets, δ ~ 3.13 ppm, δ ~ 2.75 ppm) together with spiking using a standard solution confirmed the formation of cysteamine (Figure 4c (1), Figure S35a). […] A loss in intensity of the cysteamine peaks was observed over time, possibly indicating oxidation and/or interactions with JMJD7 (Figure S35).
Stock solutions of L‐ascorbate (LAA; 500 mM), 2‐oxoglutarate (2OG; 20 mM), ferrous ammonium sulphate (FAS; 100 mM), and (trimethylsilyl)propionic‐2,2,3,3‐d 4 (TSP‐d 4; 8 mM) were freshly prepared in water on the day NMR assays were run. These stock solutions of LAA, FAS, and 2OG were diluted using aqueous buffer (50 mM sodium phosphate, pH 7.4, 10% v/v D2O) to give FAS (0.3 mM), 2OG (2 mM), and LAA (5 mM). DRG1 peptides were solubilized in buffer to a final concentration of 2 mM for use in NMR assays. […] Turnover was quantified using TSP‐d 4 as an internal standard.

human JMJD7 [3] = molecular target: T1, human JMJD7; assay: SPE-MS time-course and steady-state kinetics of JMJD7-catalyzed hydroxylation; conditions: 1.0 μM peptide, 50 nM JMJD7, SPE-MS time-course
Procedure: Having shown that introduction of γ‐thialysine and γ‐azalysine residues into DRG1 peptides generates substrates that are efficiently hydroxylated by JMJD7, giving nascent products that fragment to give formylglycine, we explored whether these two peptides could compete with the DRG1‐Lys substrate for JMJD7 catalysis. The reactions of DRG1‐Lys, DRG1‐CysNH2 and DRG1‐LysN (1.0 μM) by JMJD7 (50 nM) were investigated as a function of time using SPE‐MS assays.
To quantify the relative efficiencies of DRG1‐Lys and the substrate analog DRG1‐LysE, we carried out kinetics analyses using SPE‐MS assays as the levels of JMJD7‐catalyzed hydroxylation were sufficient for these two substrates.
JMJD7 turnover assays for kinetic studies were performed in 96‐well polypropylene assay plates with 1.0 mL total reaction volume using a series of concentrations of the DRG1 peptide (0.1–5.0 μM), 2OG (20 μM), FAS (10 μM), LAA (100 μM). Reactions were initiated by the addition of JMJD7 (100 nM). MS‐analyses were performed using a RapidFire RF 365 high‐throughput sampling robot (Agilent) attached to an iFunnel Agilent 6550 accurate mass quadrupole time‐of‐flight (Q‐TOF) mass spectrometer operated in the positive ionization mode. The RapidFire RF 365 high‐throughput sampling robot was programmed to aspirate samples from the reaction mixture at the indicated time intervals. Assay samples were loaded onto a C4 solid phase extraction (SPE) cartridge and peptides were eluted using given previous protocols (Tumber et al., [2023]). The % conversion of the hydroxylation reaction were calculated from the ion chromatogram data by integrating peak areas using RapidFire Integrator 4.3.0 software (Agilent).

T1 sequence (P0C870 whole entry, the tested form may be a part): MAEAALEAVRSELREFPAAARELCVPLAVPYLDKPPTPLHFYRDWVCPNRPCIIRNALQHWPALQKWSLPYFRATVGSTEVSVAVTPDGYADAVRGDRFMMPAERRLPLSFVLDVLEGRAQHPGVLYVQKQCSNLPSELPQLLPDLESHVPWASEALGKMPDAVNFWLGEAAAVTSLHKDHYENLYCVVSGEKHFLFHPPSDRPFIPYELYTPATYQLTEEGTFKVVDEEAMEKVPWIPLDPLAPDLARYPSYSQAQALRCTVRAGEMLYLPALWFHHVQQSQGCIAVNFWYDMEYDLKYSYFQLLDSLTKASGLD

- time to formation of the cysteamine fragment (human JMJD7 [2]): ≤ 15 min
- time to complete JMJD7-catalyzed hydroxylation (human JMJD7 [3]): ≤ 4 min
Substance: ARTQKNCysNH2ATAHHLGLLKARLAKLRR [DRG1‐CysNH2, 25-mer DRG1 (16–40) peptide with γ-thialysine at position 22]
- fate of the JMJD7 C3-hydroxylation product (human JMJD7 [1]): fragmentation to form DRG1‐formylglycine and its hydrated products
